Data published in PubChem BioAssay (NCI).
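Following 48 hours of exposure in 96-well plates, responses at five concentrations were used to interpolate endpoints linearly. GI50 = concentration required for 50% inhibition of growth. Definition used: TGI = concentration required for complete inhibition of growth.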

Columns and labels:
Experiment in all cases: NCI-60 cell line screen, 48 h; in the data active = GI50 below about 0.43 µM; inactive = the rest
[1] = test system: RXF 393 renal
[2] = test system: KM12 colon
[3] = test system: SK-MEL-28 melanoma
[4] = test system: HOP-62 NSCLC
[5] = test system: K-562 leukemia
[6] = test system: SK-OV-3 ovarian
[7] = test system: OVCAR-8 ovarian
[8] = test system: HCT-15 colon
[9] = test system: NCI/ADR-RES ovarian
[10] = test system: MDA-MB-231 breast
[11] = test system: T-47D breast
[12] = test system: NCI-H226 lung
[13] = test system: HL-60(TB) leukemia
[14] = test system: UO-31 renal
[15] = test system: LOX IMVI melanoma
[16] = test system: HCT-116 colon
[17] = test system: OVCAR-3 ovarian
[18] = test system: SNB-75 CNS
[19] = test system: MDA-MB-435
[20] = test system: DU-145 prostate
[21] = test system: MOLT-4 leukemia
[22] = test system: NCI-H460 lung
[23] = test system: HCC-2998 colon
[24] = test system: BT-549 breast
[25] = test system: A549 NSCLC
[26] = test system: RPMI-8226 leukemia
[27] = test system: HT29 colon
[28] = test system: SK-MEL-2 melanoma
[29] = test system: PC-3 prostate
[30] = test system: IGROV1 ovarian
[31] = test system: CAKI-1 renal
[32] = test system: SNB-19 CNS
[33] = test system: CCRF-CEM leukemia
[34] = test system: HOP-92 NSCLC
[35] = test system: UACC-62 melanoma
[36] = test system: HS 578T breast
[37] = test system: SN12C renal
[38] = test system: COLO 205 colon
[39] = test system: UACC-257 melanoma
[40] = test system: SR leukemia
[41] = test system: ACHN renal
[42] = test system: M14 melanoma
[43] = test system: EKVX NSCLC
[44] = test system: OVCAR-4 ovarian
[45] = test system: SF-539 CNS
[46] = test system: NCI-H23 lung
[47] = test system: SF-268 CNS
[48] = test system: U251 CNS
[49] = test system: NCI-H522 lung
[50] = test system: MCF7 breast
[51] = test system: TK-10 renal
[52] = test system: A498 renal
[53] = test system: SF-295 CNS
[54] = test system: SW-620 colon
[55] = test system: MALME-3M melanoma
[56] = test system: 786-0 renal
[57] = test system: OVCAR-5 ovarian
[58] = test system: SK-MEL-5 melanoma
[59] = test system: MDA-N

CC1(C)[C@@H](OC(N)=O)[C@H]2O[C@H]2[C@]2(C=O)[C@H]3CC[C@]4(C)[C@@H](c5ccc(=O)oc5)[C@@H](Cl)C[C@]4(O)C3=CC[C@@H]12
0.0198 µM: TGI [34]
0.00892 µM: TGI [41]
0.00981 µM: TGI [17]
0.0103 µM: TGI [24]
0.00972 µM: TGI [18]
0.00887 µM: TGI [58]
0.0123 µM: TGI [51]
0.0077 µM: TGI [22]
0.0102 µM: TGI [43]
0.0172 µM: TGI [35]
0.0222 µM: TGI [52]
0.0164 µM: TGI [39]
0.0268 µM: TGI [3]
0.0556 µM: TGI [10]
active: GI50 [1] 0.00717 µM | GI50 [2] 0.00806 µM | GI50 [3] 0.00794 µM | GI50 [4] 0.00399 µM | GI50 [5] 0.00698 µM | GI50 [6] 0.007 µM | GI50 [7] 0.00603 µM | GI50 [8] 0.0056 µM | GI50 [9] 0.00589 µM | GI50 [10] 0.0109 µM | GI50 [11] 0.00656 µM | GI50 [12] 0.00432 µM | GI50 [13] 0.00557 µM | GI50 [14] 0.00572 µM | GI50 [15] 0.00451 µM | GI50 [16] 0.00435 µM | GI50 [17] 0.00487 µM | GI50 [18] 0.00449 µM | GI50 [19] 0.00704 µM | GI50 [20] 0.00437 µM | GI50 [21] 0.00365 µM | GI50 [22] 0.00347 µM | GI50 [23] 0.00815 µM | GI50 [24] 0.00501 µM | GI50 [25] 0.00442 µM | GI50 [26] 0.00795 µM | GI50 [27] 0.00581 µM | GI50 [28] 0.02 µM | GI50 [29] 0.00667 µM | GI50 [30] 0.00836 µM | GI50 [31] 0.00448 µM | GI50 [32] 0.00796 µM | GI50 [33] 0.00571 µM | GI50 [34] 0.00616 µM | GI50 [35] 0.00614 µM | GI50 [36] 0.00409 µM | GI50 [37] 0.0056 µM | GI50 [38] 0.00731 µM | GI50 [39] 0.0059 µM | GI50 [40] 0.00617 µM | GI50 [41] 0.00403 µM | GI50 [42] 0.00639 µM | GI50 [43] 0.00472 µM | GI50 [44] 0.00555 µM | GI50 [45] 0.00439 µM | GI50 [46] 0.00379 µM | GI50 [47] 0.0037 µM | GI50 [48] 0.00484 µM | GI50 [49] 0.0035 µM | GI50 [50] 0.00724 µM | GI50 [51] 0.00551 µM | GI50 [52] 0.00683 µM | GI50 [53] 0.00522 µM | GI50 [54] 0.00529 µM | GI50 [55] 0.00629 µM | GI50 [56] 0.00489 µM | GI50 [57] 0.00606 µM | GI50 [58] 0.00459 µM
0.0112 µM: TGI [21]
0.0181 µM: TGI [11]
0.0115 µM: TGI [54]
0.0131 µM: TGI [13]
0.0219 µM: TGI [32]
0.237 µM: TGI [1]
0.0362 µM: TGI [30]
0.0118 µM: TGI [53]
0.0151 µM: TGI [57]
0.00833 µM: TGI [45]
0.0177 µM: TGI [42]
0.0173 µM: TGI [37]
0.0147 µM: TGI [33]
0.0188 µM: TGI [29]
0.0281 µM: TGI [50]
0.0139 µM: TGI [44]
0.0128 µM: TGI [8]
0.0125 µM: TGI [27]
0.00811 µM: TGI [12]
0.0104 µM: TGI [49]
0.0192 µM: TGI [36]
0.00798 µM: TGI [20]
0.00853 µM: TGI [16]
0.00952 µM: TGI [48]
0.0138 µM: TGI [55]
0.0199 µM: TGI [38]
0.0692 µM: TGI [28]
0.00749 µM: TGI [47]
0.0203 µM: TGI [6]
0.0105 µM: TGI [56]
0.00785 µM: TGI [4]
0.0111 µM: TGI [46]
0.0163 µM: TGI [14]
0.0342 µM: TGI [23]
0.00886 µM: TGI [15]
0.015 µM: TGI [7]
0.0185 µM: TGI [40]
0.0142 µM: TGI [9]
0.00859 µM: TGI [31]
0.034 µM: TGI [26]
0.0253 µM: TGI [2] | TGI [5]
0.00858 µM: TGI [25]
0.0187 µM: TGI [19]

COc1ccc(C2OC(c3ccncc3)=NN2C)cc1OC (stereo not drawn)
98.4 µM: TGI [52]
> 100 µM: TGI [1] | TGI [2] | TGI [3] | TGI [4] | TGI [5] | TGI [6] | TGI [7] | TGI [8] | TGI [9] | TGI [10] | TGI [11] | TGI [12] | TGI [13] | TGI [14] | TGI [15] | TGI [16] | TGI [17] | TGI [19] | TGI [20] | TGI [21] | TGI [22] | TGI [23] | TGI [25] | TGI [26] | TGI [27] | TGI [28] | TGI [29] | TGI [30] | TGI [31] | TGI [32] | TGI [33] | TGI [34] | TGI [35] | TGI [36] | TGI [37] | TGI [38] | TGI [39] | TGI [59] | TGI [41] | TGI [42] | TGI [43] | TGI [44] | TGI [45] | TGI [46] | TGI [47] | TGI [48] | TGI [49] | TGI [50] | TGI [51] | TGI [53] | TGI [54] | TGI [55] | TGI [56] | TGI [57] | TGI [58]

CCC(=O)ONC(=O)Cn1ccc([N+](=O)[O-])n1
> 100 µM: TGI [1] | TGI [2] | TGI [3] | TGI [4] | TGI [5] | TGI [6] | TGI [7] | TGI [9] | TGI [10] | TGI [12] | TGI [13] | TGI [14] | TGI [15] | TGI [16] | TGI [17] | TGI [18] | TGI [19] | TGI [20] | TGI [21] | TGI [23] | TGI [25] | TGI [26] | TGI [27] | TGI [29] | TGI [30] | TGI [31] | TGI [32] | TGI [33] | TGI [34] | TGI [35] | TGI [36] | TGI [37] | TGI [38] | TGI [39] | TGI [40] | TGI [59] | TGI [41] | TGI [42] | TGI [43] | TGI [45] | TGI [46] | TGI [47] | TGI [49] | TGI [50] | TGI [51] | TGI [53] | TGI [54] | TGI [55] | TGI [56] | TGI [57] | TGI [58]
